The results in this text go back to PubChem BioAssay (NCI).

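Cultured in 96-well plates, cells were exposed to test compound for 48 hours across five concentrations. GI50 marks 50% less growth. TGI: total growth inhibition.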

This experiment has as its system MDA-MB-468 breast. Description: NCI tumour cell line growth inhibition, 48 h.

In the case of `Brc1ccc([I+]c2ccc(Br)cc2)cc1`, the GI50 is 0.541 µM and the TGI worked out at 3.52 µM.
For the compound `CCCN(CCC)c1ccc(CO)c(C)c1`, the GI50 was 0.962 µM and the TGI turned out to be 4.32 µM.
In the same order, the values of `Cn1c(=O)cc2c3c(c(NCCCO)ccc31)C(=O)c1ccccc1-2` are 2.11 µM and 9.66 µM.
As to `COC(CCP(=O)(c1ccccc1)c1ccccc1)(C(=O)c1ccccc1)c1ccccc1` (stereo unspecified), the GI50 is 2.05 µM and the TGI was 11.7 µM.
On the same counts, the results for `C#C[C@]1(O)CC[C@H]2[C@@H]3CC=C4c5sc(-c6ccc(F)cn6)nc5CC[C@]4(C)[C@H]3CC[C@@]21C` are 2.99 µM and 13.7 µM.
Take `COc1ccc2[nH]cc(-c3nc(-c4cn(C)c5ccncc45)cs3)c2c1`: the GI50 is 1.97 µM and the TGI worked out at 3.77 µM.
On the same counts, the results for `O=C(COc1cccc(/C=C2\COc3ccccc3C2=O)c1)Nc1nccs1` are 1.91 µM and 3.54 µM.
In the same order, the values of `COc1ccc2c(c1)c(C1(c3cn(C)c4ccc(OC)cc34)C(=O)Nc3ccc(F)cc31)cn2C` are 3.4 µM and 41.4 µM.
On the same counts, the results for `CN1C(=O)CNC(=O)[C@H](NC(=O)c2nc3ccccc3cc2O)CSSC[C@H]1C(=O)NCCc1nc2ccccc2cc1O` are 1.32 µM and 11 µM.
Turning to `COc1cnc2c(c1)C(=O)c1c-2n(CCCn2ccnc2)c(=O)c2cc(Cl)ccc12`, the GI50 was 0.0252 µM and the TGI was 0.0855 µM.
In the same order, the values of `ClCCN(CCCl)c1ccc(-n2cnc3c(Cl)ncnc32)cc1` are 1.97 µM and 4.18 µM.
On the same counts, the results for `Oc1ccccc1-c1nnc(SCc2ccc(O)c3ncccc23)n1-c1ccccc1` are 0.349 µM and 9.29 µM.
On the same counts, the results for `COc1cccc(/C=N\Nc2ccc([N+](=O)[O-])cn2)c1O` are 2.27 µM and 6.64 µM.
For `CCCCC(=O)N/N=C/c1cc(I)cc(I)c1O`, the GI50 is 2.85 µM and the TGI was determined as 18.4 µM.
In the same order, the values of `CCC(Sc1nnc2c3ccccc3n(CC)c2n1)C(=O)Nc1ccccc1OC` (stereo unspecified) are 1.37 µM and 4.23 µM.
As for `O=C1OC(c2ccc(O)c(Cl)c2)(c2ccc(O)c(Cl)c2)c2ccc(Br)c3cccc1c23` (tested in a mixture with another compound), the GI50 was 14.6 µM and the TGI came out at 34.1 µM.
In the same order, the values of `C(=C1c2ccccc2-c2ccccc21)c1ccccn1` are 2.64 µM and 14.7 µM.
Take `CCN(CC)c1ccc2c(c1)Oc1nc(N)c(C#N)c(N)c1C2Sc1ccc(SC)cc1` (stereo unspecified): the GI50 was 1.94 µM and the TGI was 3.64 µM.
In the same order, the values of `CCCCCCCCCCCCCCCc1cc(O)ccc1N` are 2.04 µM and 6.3 µM.
Turning to `COc1ccc(O)c(C(=O)c2ccc(C(=O)O[C@@H]3CCCNC[C@H]3NC(=O)c3ccncc3)cc2)c1F`, the GI50 was 0.511 µM and the TGI was over 23.7 µM.
In the same order, the values of `Oc1ccc(CSc2nnc(-c3ccccc3)o2)c2cccnc12` are 2.21 µM and over 100 µM.
In the same order, the values of `CC(C)(C)c1ccc([I+]c2ccc(C(C)(C)C)cc2)cc1` are 0.4 µM and 2.28 µM.
For the compound `CC1(C)N=C(N)N=C(N)N1c1ccc(F)c(C(F)(F)F)c1`, the GI50 is 1.47 µM and the TGI was over 100 µM.
Take `Cn1c(COC(=O)N2CCCCC2)nc2c(N3CCOCC3)nc(-c3ccccc3)nc21`: the GI50 is 0.656 µM and the TGI turned out to be 2.19 µM.
Consider `COc1cc(CSc2nc3ccc(C)cc3c(=O)n2Cc2ccccc2)cc(OC)c1OC`, for which the GI50 is 0.479 µM and the TGI is 3.01 µM.
Regarding `Nc1cc(-c2ccccc2)ccc1O`, the GI50 was 42.3 µM and the TGI was over 100 µM.
For `C#C[C@]1(O)CC[C@H]2[C@@H]3CC=C4c5sc(N=C(N)N)nc5CC[C@]4(C)[C@H]3CC[C@@]21C`, the GI50 was 0.741 µM and the TGI was 2.2 µM.
On the same counts, the results for `CCC[C@H](N[C@@H]1CCc2cc(F)cc(F)c2C1)C(=O)Nc1cn(C(C)(C)CNCC(C)(C)C)cn1` are 3.48 µM and 29.7 µM.
On to `CS(=O)(=O)CCNCc1ccc(-c2ccc3ncnc(Nc4ccc(OCc5cccc(C(F)(F)F)c5)cc4)c3c2)o1`, for which the GI50 was 3.39 µM and the TGI came to 8.6 µM.
As to `CN1CCN(c2ccc3nc(-c4cc(C(C)(C)C)c(O)c(C(C)(C)C)c4)[nH]c3c2)CC1`, the GI50 was 1.92 µM and the TGI is 3.76 µM.
In the same order, the values of `O=C(Nc1cc(C(F)(F)F)cc(C(F)(F)F)c1)Nc1ccc2oc(=O)ccc2c1` are 0.641 µM and 4.41 µM.
For `COCCOC(=O)C1=C(C)NC2=C(C(=O)CC(c3ccccc3OC)C2)C1c1cccc(O)c1` (stereo unspecified), the GI50 is 3.92 µM and the TGI is 21.9 µM.
On the same counts, the results for `COc1ccc(-c2n[nH]nc2-c2csc3ccccc23)cc1OC` are 0.631 µM and 10.7 µM.
